Assays:
[1] = Removal test of heavy metals of active ingredients (pig skin, ICP-MS): Pb; settings: contaminated pig skin
Procedure: (§1) (1) Preparation of Heavy Metal Contamination Sources and Pig Skin Samples
(§2) A pig was slaughtered, flayed and the bristle was shaved. The pig skin was cut to prepare 5*5 cm size of skin samples respectively.
(§3) The said skin samples were cleanly wiped with wet gauze, and then, added to 50 ml of methanol and extracted by shaking with ultrasonic for 60 min. 50 ml of methanol was further added and mixed. The pig skin samples were removed from the extracted solutions to prepare the test solutions.
(§4) The test solutions were analyzed for heavy metal components using an inductively coupled plasma mass spectrometer (ICP-MS, Xseries™ 2, Thermo Fisher Scientific, UK).

[2] = Removal test of heavy metals of active ingredients (pig skin, ICP-MS): Cd; settings: contaminated pig skin
Procedure: as §1, §2, §3, §4

[3] = Removal test of heavy metals of active ingredients (pig skin, ICP-MS): Cu; settings: contaminated pig skin
Procedure: as §1, §2, §3, §4

human skin = assay: Skin irritation test of active ingredient (patch method, CTFA guidelines); format: in vivo; set-up: key to Degree of irritation: 0–0.1 none, 0.11–0.3 weak, 0.31–0.5 moderate, ≥0.51 strong irritation; settings: 20 people, patch 24 hours; for Test result(number of subject) (+): (+): Apparent reddening than periphery; for Test result(number of subject) (++): (++): More reddened and swollen than periphery; for Test result(number of subject) (±): (±): slightly reddish than the periphery; for Test result(number of subject) (−): (−): No erythema or particularly no symptoms
Procedure: A total of 20 people (10 men and 10 women in their 20 s and 30 s) were tested for skin irritation using the patch method according to the guidelines of CTFA (The Cosmetic, Toiletry & Fragrance Association, Inc. Washington, D.C.).
A filter paper disk was placed in an 8 mm diameter, 10 panels of pin chamber.
After 24 hours, the pin chamber was removed, and skin conditions were visually observed.
[Criteria for Skin Irritation]
(−): No erythema or particularly no symptoms; (±): slightly reddish than the periphery; (+): Apparent reddening than periphery; (++): More reddened and swollen than periphery.
[Grade for Skin Irritation]
Degree of irritation 0-0.1: Grade I (unstimulated);
Degree of irritation 0.11-0.3: Grade II (weakly stimulated);
Degree of irritation 0.31-0.5: Grade III (moderately stimulated);
Degree of irritation 0.51 or more: Grade IV (strongly stimulated)

[4] = Formaldehyde removing ability test (GC); settings: 2.0% formaldehyde solution; for Area (mAU*min) 30 min: formaldehyde GC area after 30 min; for Area (mAU*min) 30 min / Area (mAU*min) 180 min: 3 molar equivalents, room temperature; for Area (mAU*min) 180 min: formaldehyde GC area after 180 min; for Area (mAU*min) Initial: formaldehyde GC area, initial state, 3 molar equivalents of compound

Structure (SMILES): O=C(O)CN(CCN(CC(=O)O)CC(=O)O)CC(=O)O [1(EDTA), Ethylenediaminetetraacetic acid, reference compound]
- Removal of Heavy metals Pb (%) ([1]; 0.1 wt % aqueous solution): 84.3%
- Removal of Heavy metals Pb (%) ([1]; 0.5 wt % aqueous solution): 88.3%
- Removal of Heavy metals Pb (%) ([1]; 1.0 wt % aqueous solution): 89.6%
- Removal of Heavy metals Cd (%) ([2]; 0.1 wt % aqueous solution): 82.3%
- Removal of Heavy metals Cd (%) ([2]; 0.5 wt % aqueous solution): 87.3%
- Removal of Heavy metals Cd (%) ([2]; 1.0 wt % aqueous solution): 88.3%
- Removal of Heavy metals Cu (%) ([3]; 0.1 wt % aqueous solution): 86.5%
- Removal of Heavy metals Cu (%) ([3]; 0.5 wt % aqueous solution): 88.6%
- Removal of Heavy metals Cu (%) ([3]; 1.0 wt % aqueous solution): 89.2%

Structure (SMILES): C1CNCCNCCNCCN1 [Cyclen, 1,4,7,10-tetraazacyclododecane]
- Removal of Heavy metals Pb (%) ([1]; 0.1 wt % aqueous solution): 91.7%
- Removal of Heavy metals Pb (%) ([1]; 0.5 wt % aqueous solution): 93.7%
- Removal of Heavy metals Pb (%) ([1]; 1.0 wt % aqueous solution): 94.3%
- Removal of Heavy metals Cd (%) ([2]; 0.1 wt % aqueous solution): 88.6%
- Removal of Heavy metals Cd (%) ([2]; 0.5 wt % aqueous solution): 91.1%
- Removal of Heavy metals Cd (%) ([2]; 1.0 wt % aqueous solution): 91.4%
- Removal of Heavy metals Cu (%) ([3]; 0.1 wt % aqueous solution): 93.1%
- Removal of Heavy metals Cu (%) ([3]; 0.5 wt % aqueous solution): 96.6%
- Removal of Heavy metals Cu (%) ([3]; 1.0 wt % aqueous solution): 97.8%
- Degree of irritation (human skin; 0.1 wt %): 0
- Grade (human skin; 0.1 wt %): I (Degree of irritation 0-0.1: Grade I (unstimulated))
- Test result(number of subject) (+) (human skin; 0.1 wt %): 0
- Test result(number of subject) (++) (human skin; 0.1 wt %): 0
- Test result(number of subject) (±) (human skin; 0.1 wt %): 0
- Test result(number of subject) (−) (human skin; 0.1 wt %): 20
- Degree of irritation (human skin; 0.5 wt %): 0
- Grade (human skin; 0.5 wt %): I (Degree of irritation 0-0.1: Grade I (unstimulated))
- Test result(number of subject) (+) (human skin; 0.5 wt %): 0
- Test result(number of subject) (++) (human skin; 0.5 wt %): 0
- Test result(number of subject) (±) (human skin; 0.5 wt %): 0
- Test result(number of subject) (−) (human skin; 0.5 wt %): 20
- Degree of irritation (human skin; 1.0 wt %): 0.15
- Grade (human skin; 1.0 wt %): II (Degree of irritation 0.11-0.3: Grade II (weakly stimulated))
- Test result(number of subject) (+) (human skin; 1.0 wt %): 1
- Test result(number of subject) (++) (human skin; 1.0 wt %): 0
- Test result(number of subject) (±) (human skin; 1.0 wt %): 1
- Test result(number of subject) (−) (human skin; 1.0 wt %): 18
- Area (mAU*min) 30 min [4]: 0.181 mAU*min
- Area (mAU*min) 180 min [4]: 0 mAU*min
- Area (mAU*min) Initial [4]: 0.305 mAU*min

Structure (SMILES): O=C(O)CN(CCN(CCN(CC(=O)O)CC(=O)O)CC(=O)O)CCN(CC(=O)O)CC(=O)O [Embodiment 1, 3,6,9,12-tetrakis(carboxymethyl)-3,6,9,12-tetraazatetradecanedioic acid]
- Removal of Heavy metals Pb (%) ([1]; 0.1 wt % aqueous solution): 91.1%
- Removal of Heavy metals Pb (%) ([1]; 0.5 wt % aqueous solution): 92.0%
- Removal of Heavy metals Pb (%) ([1]; 1.0 wt % aqueous solution): 92.1%
- Removal of Heavy metals Cd (%) ([2]; 0.1 wt % aqueous solution): 91.0%
- Removal of Heavy metals Cd (%) ([2]; 0.5 wt % aqueous solution): 93.0%
- Removal of Heavy metals Cd (%) ([2]; 1.0 wt % aqueous solution): 94.1%
- Removal of Heavy metals Cu (%) ([3]; 0.1 wt % aqueous solution): 95.2%
- Removal of Heavy metals Cu (%) ([3]; 0.5 wt % aqueous solution): 97.3%
- Removal of Heavy metals Cu (%) ([3]; 1.0 wt % aqueous solution): 97.5%
- Degree of irritation (human skin; 0.1 wt %): 0
- Grade (human skin; 0.1 wt %): I (Degree of irritation 0-0.1: Grade I (unstimulated))
- Test result(number of subject) (+) (human skin; 0.1 wt %): 0
- Test result(number of subject) (++) (human skin; 0.1 wt %): 0
- Test result(number of subject) (±) (human skin; 0.1 wt %): 0
- Test result(number of subject) (−) (human skin; 0.1 wt %): 20
- Degree of irritation (human skin; 0.5 wt %): 0.05
- Grade (human skin; 0.5 wt %): I (Degree of irritation 0-0.1: Grade I (unstimulated))
- Test result(number of subject) (+) (human skin; 0.5 wt %): 0
- Test result(number of subject) (++) (human skin; 0.5 wt %): 0
- Test result(number of subject) (±) (human skin; 0.5 wt %): 1
- Test result(number of subject) (−) (human skin; 0.5 wt %): 19
- Degree of irritation (human skin; 1.0 wt %): 0.20
- Grade (human skin; 1.0 wt %): II (Degree of irritation 0.11-0.3: Grade II (weakly stimulated))
- Test result(number of subject) (+) (human skin; 1.0 wt %): 0
- Test result(number of subject) (++) (human skin; 1.0 wt %): 0
- Test result(number of subject) (±) (human skin; 1.0 wt %): 4
- Test result(number of subject) (−) (human skin; 1.0 wt %): 16
- Area (mAU*min) 30 min [4]: 0.170 mAU*min
- Area (mAU*min) 180 min [4]: 0 mAU*min
- Area (mAU*min) Initial [4]: 0.305 mAU*min

Structure (SMILES): O=C(O)c1ccc(N(CCN(CCN(c2ccc(C(=O)O)cc2)c2ccc(C(=O)O)cc2)c2ccc(C(=O)O)cc2)CCN(c2ccc(C(=O)O)cc2)c2ccc(C(=O)O)cc2)cc1 [Embodiment 2, 4,4′,4″,4′″-(((ethane-1,2-diylbis((4-carboxyphenyl)azanediyl))bis(ethane-2,1-diyl))bis(azanetriyl))tetrabenzoic acid]
- Removal of Heavy metals Pb (%) ([1]; 0.1 wt % aqueous solution): 86.4%
- Removal of Heavy metals Pb (%) ([1]; 0.5 wt % aqueous solution): 88.6%
- Removal of Heavy metals Pb (%) ([1]; 1.0 wt % aqueous solution): 89.0%
- Removal of Heavy metals Cd (%) ([2]; 0.1 wt % aqueous solution): 87.3%
- Removal of Heavy metals Cd (%) ([2]; 0.5 wt % aqueous solution): 89.7%
- Removal of Heavy metals Cd (%) ([2]; 1.0 wt % aqueous solution): 90.5%
- Removal of Heavy metals Cu (%) ([3]; 0.1 wt % aqueous solution): 93.5%
- Removal of Heavy metals Cu (%) ([3]; 0.5 wt % aqueous solution): 95.8%
- Removal of Heavy metals Cu (%) ([3]; 1.0 wt % aqueous solution): 96.9%
- Degree of irritation (human skin; 0.1 wt %): 0
- Grade (human skin; 0.1 wt %): I (Degree of irritation 0-0.1: Grade I (unstimulated))
- Test result(number of subject) (+) (human skin; 0.1 wt %): 0
- Test result(number of subject) (++) (human skin; 0.1 wt %): 0
- Test result(number of subject) (±) (human skin; 0.1 wt %): 0
- Test result(number of subject) (−) (human skin; 0.1 wt %): 20
- Degree of irritation (human skin; 0.5 wt %): 0
- Grade (human skin; 0.5 wt %): I (Degree of irritation 0-0.1: Grade I (unstimulated))
- Test result(number of subject) (+) (human skin; 0.5 wt %): 0
- Test result(number of subject) (++) (human skin; 0.5 wt %): 0
- Test result(number of subject) (±) (human skin; 0.5 wt %): 0
- Test result(number of subject) (−) (human skin; 0.5 wt %): 20
- Degree of irritation (human skin; 1.0 wt %): 0.05
- Grade (human skin; 1.0 wt %): I (Degree of irritation 0-0.1: Grade I (unstimulated))
- Test result(number of subject) (+) (human skin; 1.0 wt %): 0
- Test result(number of subject) (++) (human skin; 1.0 wt %): 0
- Test result(number of subject) (±) (human skin; 1.0 wt %): 1
- Test result(number of subject) (−) (human skin; 1.0 wt %): 19
- Area (mAU*min) 30 min [4]: 0.168 mAU*min
- Area (mAU*min) 180 min [4]: 0 mAU*min
- Area (mAU*min) Initial [4]: 0.305 mAU*min

Structure (SMILES): O=C(O)c1ccc(N(CCN(CCN(c2ccc(C(=O)O)o2)c2ccc(C(=O)O)o2)c2ccc(C(=O)O)o2)CCN(c2ccc(C(=O)O)o2)c2ccc(C(=O)O)o2)o1 [Embodiment 4, 5,5′,5″,5′″-(((ethane-1,2-diylbis((5-carboxyfuran-2-yl)azanediyl))bis(ethane-2,1-diyl))bis(azanetriyl))tetrakis(furan-2-carboxylic acid)]
- Removal of Heavy metals Pb (%) ([1]; 0.1 wt % aqueous solution): 86.2%
- Removal of Heavy metals Pb (%) ([1]; 0.5 wt % aqueous solution): 89.7%
- Removal of Heavy metals Pb (%) ([1]; 1.0 wt % aqueous solution): 90.8%
- Removal of Heavy metals Cd (%) ([2]; 0.1 wt % aqueous solution): 87.7%
- Removal of Heavy metals Cd (%) ([2]; 0.5 wt % aqueous solution): 90.6%
- Removal of Heavy metals Cd (%) ([2]; 1.0 wt % aqueous solution): 91.8%
- Removal of Heavy metals Cu (%) ([3]; 0.1 wt % aqueous solution): 92.5%
- Removal of Heavy metals Cu (%) ([3]; 0.5 wt % aqueous solution): 96.2%
- Removal of Heavy metals Cu (%) ([3]; 1.0 wt % aqueous solution): 97.2%
- Degree of irritation (human skin; 0.1 wt %): 0
- Grade (human skin; 0.1 wt %): I (Degree of irritation 0-0.1: Grade I (unstimulated))
- Test result(number of subject) (+) (human skin; 0.1 wt %): 0
- Test result(number of subject) (++) (human skin; 0.1 wt %): 0
- Test result(number of subject) (±) (human skin; 0.1 wt %): 0
- Test result(number of subject) (−) (human skin; 0.1 wt %): 20
- Degree of irritation (human skin; 0.5 wt %): 0
- Grade (human skin; 0.5 wt %): I (Degree of irritation 0-0.1: Grade I (unstimulated))
- Test result(number of subject) (+) (human skin; 0.5 wt %): 0
- Test result(number of subject) (++) (human skin; 0.5 wt %): 0
- Test result(number of subject) (±) (human skin; 0.5 wt %): 0
- Test result(number of subject) (−) (human skin; 0.5 wt %): 20
- Degree of irritation (human skin; 1.0 wt %): 0.05
- Grade (human skin; 1.0 wt %): I (Degree of irritation 0-0.1: Grade I (unstimulated))
- Test result(number of subject) (+) (human skin; 1.0 wt %): 0
- Test result(number of subject) (++) (human skin; 1.0 wt %): 0
- Test result(number of subject) (±) (human skin; 1.0 wt %): 1
- Test result(number of subject) (−) (human skin; 1.0 wt %): 19
- Area (mAU*min) 30 min [4]: 0.173 mAU*min
- Area (mAU*min) 180 min [4]: 0 mAU*min
- Area (mAU*min) Initial [4]: 0.305 mAU*min

Reference: patent publication US11090247B2, “Compositions for protecting the skin from heavy metals and formaldehyde” (FNG RESEARCH CO., LTD., priority 2016, dated 2021)
